From patent US20130130305A1, “IN[…] THAT INHIBIT IAA OR A YAP FAMILY” (priority 2010, published 2013)

Experiments:
C. albicans [1] = test: IAA-induced filamentation in C. albicans; assay type: cell-based, Candida albicans
Description: (§1) Analytical and phenotypic studies were performed in cognate deletion mutants, made in the Σ1278b background. A [^14C]Trp incorporation assay was performed to verify that phenotype observed in the library strain could be recapitulated in the newly constructed E1278b strain. Typically three independent transformants were isolated, confirmed by PCR and used for further studies. Standard culture conditions were used (Sherman et al., Laboratory Course Manual for Methods in Yeast Genetics, Cold Spring Harbor Laboratories Press, Cold Spring Harbor, N.Y., 1986) and analysis of IAA-associated phenotypes were performed as described earlier (Prusty et al., Proc. Natl. Acad. Sci. USA 101:4153-4157, 2004).
IAA induces filamentation in C. albicans: The effects of the secondary metabolites identified in fungi appear to be largely species specific (Chen and Fink, Genes Dev. 20:1150-1161, 2006). […] To test whether the IAA effects could cross species barriers, we exposed wild-type C. albicans, a human pathogen, as well as attenuated mutants in the mitogen-activated protein (MAP) kinase and the cAMP-dependent protein kinase pathways to IAA. […] The cph1Δ/Δefg1Δ/Δ double mutant, which is nonfilamentous under standard laboratory conditions and avirulent in mice, filaments in the oral cavity of immunosuppressed piglets and when embedded in agar (Riggle et al., Infect. Immun. 67:3649-3652, 1999).

C. albicans [2] = test: Growth on media containing IAA (IAA sensitivity) of C. albicans CAP1 deletion mutants; assay type: cell-based, Candida albicans
Description: as §1
To test if other aspects of IAA regulation in S. cerevisiae were also conserved in C. albicans, we tested Cap1, the C. albicans homolog of Yap, for its sensitivity to IAA.

S. cerevisiae = test: IAA-associated growth inhibition phenotype in S. cerevisiae ald mutants; assay type: cell-based, Saccharomyces cerevisiae
Description: as §1
The ability of a fungus to perceive a small molecule signal that causes it to differentiate into an invasive form has important implications for host-pathogen interactions. To test the hypothesis that mutants with aberrant IAA accumulation also affect dimorphism, we examined diploid filamentation and haploid invasive growth in all ald single mutants and selected combinations of double mutants. […] We also tested a previously reported growth inhibition phenotype associated with exposure to IAA. […] However, these phenotypes are consistent with ald2Δald3Δ mutants producing more IAA than isogenic wild-type strains.

O=C(O)Cc1c[nH]c2ccccc12 [IAA, indole-3-acetic acid]
filamentation (C. albicans [1]; single mutants efg1Δ/Δ or cph1Δ/Δ, exposed to IAA): showed a robust filamentation
filamentation (C. albicans [1]; wild-type strains, treated with IAA vs untreated cells): filamented more
growth on media containing IAA (C. albicans [2]; heterozygous and homozygous CAP1 deletion mutants vs isogenic wild type): grew less well
sensitivity to IAA (C. albicans [2]; heterozygous cap1Δ/+ vs wild-type CAP1+/+ or homozygous cap1Δ/Δ): intermediate sensitivity
sensitivity to IAA (growth inhibition) (S. cerevisiae; deletion of both ald2 and ald3 vs wild-type cells): increase in sensitivity to IAA
sensitivity to IAA (growth inhibition) (S. cerevisiae; single deletion of an ALD gene vs wild-type cells): did not affect IAA sensitivity
